Source: the supplement of paper PMC10307832

Legend:
Assay in all cases: relative viability (nuclei count vs DMSO), 5 days (fraction); higher = more cells survive
BAM7 + Olaparib = compound: CCOC1=CC=CC=C1N=NC2=C(NN(C2=O)C3=NC(=CS3)C4=CC=CC=C4)C [BAM7] + O=C(c1cc(Cc2n[nH]c(=O)c3ccccc23)ccc1F)N1CCN(C(=O)C2CC2)CC1 [Olaparib] (partner 8 µM)
In short: (§1)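 Lung cancer cell lines, seeded in 1536-well plates, were treated the following day by pin tool with a single drug or with five library-drug doses (not always all listed) in √10 steps on top of a fixed anchor-drug dose. Cells were fixed and nuclei stained in one step after 5 days, and nuclei were counted. Relative viability is the nuclei count for treated wells divided by that for vehicle wells, reported as medians of duplicate plates.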

[1] = compound: CCn1c(-c2nonc2N)nc2c(C#CC(C)(C)O)ncc(OC[C@H]3CCCNC3)c21 + NC(=O)Nc1cc(-c2cccc(F)c2)sc1C(=O)N[C@H]1CCCNC1 [AZD7762] (partner 0.2 µM)
In short: as §1

[2] = compound: CCn1c(-c2nonc2N)nc2c(C#CC(C)(C)O)ncc(OC[C@H]3CCCNC3)c21 + Nc1ncn([C@H]2C[C@H](O)[C@@H](CO)O2)c(=O)n1 [Decitabine] (partner 2 µM)
In short: as §1

[3] = compound: CCn1c(-c2nonc2N)nc2c(C#CC(C)(C)O)ncc(OC[C@H]3CCCNC3)c21 + CS(=O)(=O)N1CCN(Cc2cc3nc(-c4cccc5[nH]ncc45)nc(N4CCOCC4)c3s2)CC1 [Pictilisib] (partner 1 µM)
In short: as §1

NCI-H358 was tested, and the relative viability (BAM7 + Olaparib; first compound 5 µM) was 0.535, the relative viability (BAM7 + Olaparib; first compound 15.81 µM) was 0.547 and the relative viability (BAM7 + Olaparib; first compound 50 µM) was 0.608. The relative viability ([1]; first compound 0.01 µM) was 0.478, the relative viability ([1]; first compound 0.03162 µM) was 0.386 and the relative viability ([1]; first compound 0.1 µM) was 0.684. For the same cell line, the relative viability ([1]; first compound 0.3162 µM) was 0.518, the relative viability ([1]; first compound 1 µM) was 0.512 and the relative viability ([2]; first compound 0.01 µM) was 0.234. It also gave a relative viability ([2]; first compound 0.03162 µM) of 0.191, a relative viability ([2]; first compound 0.1 µM) of 0.221 and a relative viability ([2]; first compound 0.3162 µM) of 0.207. For the same cell line, the relative viability ([2]; first compound 1 µM) was 0.201, the relative viability ([3]; first compound 0.01 µM) was 0.332 and the relative viability ([3]; first compound 0.03162 µM) was 0.364. The relative viability ([3]; first compound 0.1 µM) was 0.364, the relative viability ([3]; first compound 0.3162 µM) was 0.318 and the relative viability ([3]; first compound 1 µM) was 0.32.

Work on NCI-H650 yielded a relative viability (BAM7 + Olaparib; first compound 0.5 µM) of 0.424, a relative viability (BAM7 + Olaparib; first compound 5 µM) of 0.363 and a relative viability (BAM7 + Olaparib; first compound 15.81 µM) of 0.381. It also gave a relative viability (BAM7 + Olaparib; first compound 50 µM) of 0.368, a relative viability ([1]; first compound 0.01 µM) of 0.948 and a relative viability ([1]; first compound 0.03162 µM) of 1.05. For the same cell line, the relative viability ([1]; first compound 0.1 µM) was 0.998, the relative viability ([1]; first compound 0.3162 µM) was 0.878 and the relative viability ([1]; first compound 1 µM) was 1.08. For the same cell line, the relative viability ([2]; first compound 0.01 µM) was 0.323, the relative viability ([2]; first compound 0.03162 µM) was 0.348 and the relative viability ([2]; first compound 0.1 µM) was 0.32. For the same cell line, the relative viability ([2]; first compound 0.3162 µM) was 0.304, the relative viability ([2]; first compound 1 µM) was 0.29 and the relative viability ([3]; first compound 0.01 µM) was 0.867. The relative viability ([3]; first compound 0.03162 µM) was 0.96, the relative viability ([3]; first compound 0.1 µM) was 0.968 and the relative viability ([3]; first compound 0.3162 µM) was 0.521. For the same cell line, the relative viability ([3]; first compound 1 µM) was 0.758.

PC-3 [JPC-3] showed a relative viability (BAM7 + Olaparib; first compound 0.5 µM) of 1.12, a relative viability (BAM7 + Olaparib; first compound 5 µM) of 1.1 and a relative viability (BAM7 + Olaparib; first compound 15.81 µM) of 1.06. The relative viability (BAM7 + Olaparib; first compound 50 µM) was 0.995, the relative viability ([1]; first compound 0.01 µM) was 0.724 and the relative viability ([1]; first compound 0.1 µM) was 0.796. The relative viability ([1]; first compound 0.3162 µM) was 0.692, the relative viability ([1]; first compound 1 µM) was 0.859 and the relative viability ([2]; first compound 0.01 µM) was 0.832. It also gave a relative viability ([2]; first compound 0.1 µM) of 0.836, a relative viability ([2]; first compound 0.3162 µM) of 0.769 and a relative viability ([2]; first compound 1 µM) of 0.78. For the same cell line, the relative viability ([3]; first compound 0.01 µM) was 0.754, the relative viability ([3]; first compound 0.03162 µM) was 0.744 and the relative viability ([3]; first compound 0.1 µM) was 0.762. For the same cell line, the relative viability ([3]; first compound 0.3162 µM) was 0.695 and the relative viability ([3]; first compound 1 µM) was 0.643.
